Results: PMC2974784 (Pharmacological research : the official journal of the …, 2010)
Structures can show the parent of a compound that is named as a salt. Where two headings read alike, the source gives them in different places.

Experiments:
Format in all cases: cell-based
P2Y1 receptor [1] = target: T1, P2Y1 receptor (Rattus norvegicus, UniProt P49651); assay: agonist-induced intracellular calcium mobilization in RBL-2H3 cells
P2Y13 receptor = target: T2, P2Y13 receptor (Rattus norvegicus, UniProt Q6GUG4)
T2 sequence (Q6GUG4 1-336): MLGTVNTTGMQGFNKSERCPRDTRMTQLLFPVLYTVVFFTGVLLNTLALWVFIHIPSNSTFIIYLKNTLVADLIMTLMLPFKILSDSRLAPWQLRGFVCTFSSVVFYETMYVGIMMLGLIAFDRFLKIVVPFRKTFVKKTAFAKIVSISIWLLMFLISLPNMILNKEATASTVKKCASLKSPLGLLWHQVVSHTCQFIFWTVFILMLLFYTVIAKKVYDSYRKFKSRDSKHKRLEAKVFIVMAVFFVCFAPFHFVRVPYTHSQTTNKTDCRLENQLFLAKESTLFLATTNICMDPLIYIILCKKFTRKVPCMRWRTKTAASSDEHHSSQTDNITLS

P2Y1 receptor [2] = target: T1, P2Y1 receptor
P2Y1 receptor [3] = target: T1, P2Y1 receptor; remark: listed apart in the source

T1 sequence (P49651 whole entry): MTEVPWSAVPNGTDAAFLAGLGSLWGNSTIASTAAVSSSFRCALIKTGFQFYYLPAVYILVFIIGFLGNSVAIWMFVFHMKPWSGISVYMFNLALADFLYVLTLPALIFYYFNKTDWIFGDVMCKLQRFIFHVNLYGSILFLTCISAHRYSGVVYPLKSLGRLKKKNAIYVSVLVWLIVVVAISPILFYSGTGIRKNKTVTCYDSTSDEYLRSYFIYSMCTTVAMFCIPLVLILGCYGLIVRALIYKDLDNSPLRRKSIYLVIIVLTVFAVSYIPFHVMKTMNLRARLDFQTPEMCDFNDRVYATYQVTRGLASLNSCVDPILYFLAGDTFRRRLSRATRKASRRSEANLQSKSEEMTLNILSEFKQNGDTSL

For `CSc1nc(N)c2ncn([C@@H]3O[C@H](COP(=O)(O)OP(=O)(O)O)[C@@H](O)[C@H]3O)c2n1` [2-MeSADP], which EC50 (P2Y1 receptor [1]) is on record?
Its EC50 is 37.8 ± 11.3 nM.

Which EC50 (P2Y13 receptor) does the source give for `Nc1ncnc2c1ncn2[C@@H]1O[C@H](COP(=O)(O)OP(=O)(O)O)[C@@H](O)[C@H]1O` [ADP] here?
The EC50 was 4700 ± 800 nM.

What about the EC50 (P2Y1 receptor [2]) of the same compound?
The EC50 was 278 ± 42 nM.

`CSc1nc(N)c2ncn([C@H]3[C@H](O)[C@H](O)[C@]4(COP(=O)(O)OP(=O)(O)O)C[C@H]34)c2n1` [MRS2365, [[(1R,2R,3S,4R,5S)-4-[6-amino-2-(methylthio)-9H-purin-9-yl]-2,3-dihydroxybicyclo[3.1.0]hex-1-yl]methyl]diphosphoric acid mono ester trisodium salt] was tested. Which EC50 (P2Y1 receptor [3]) did it give?
The EC50 was 4.5 ± 0.8 nM.
